Experimental data published in patent US8940915B2, “Solvent for recovery of maleic anhydride from a gas stream” (Huntsman Petrochemical LLC, priority 2011, dated 2015).
≈ marks a conversion by molar mass, not a printed value.

Tests used:
[1] = Solubility of maleic anhydride in the solvent; type: physicochemical; conditions: maleic anhydride dissolved in dibutyl adipate, at 60° C.
[2] = Solubility of fumaric acid in the solvent; type: physicochemical; conditions: fumaric acid dissolved in dibutyl adipate, at 60° C.
Solubility in water = type: physicochemical; conditions: at 25° C.

SMILES: CCCCOC(=O)CCCCC(=O)OCCCC [dibutyl adipate, Di-n-butyl adipate]
- Solubility of Maleic Anhydride [1]: >20 wt % at 60 °C
- Toxicity (in words) (Toxicity statement): neither dibutyl adipate nor any of its hydrolysis products is toxic
- Solubility of Fumaric Acid [2]: about 0.15 wt % at 60 °C
- solubility (Solubility in water): 35 µg/mL (≈ 135 µM)
